Assay [1] has as its system Escherichia coli. The assay can be described thus: Antibacterial activity against Escherichia coli ATCC 25922 assessed as bacterial growth inhibition at 50 uM incubated for 24 hrs by CLSI protocol based broth microdilution assay relative to control. It is filed as functional. (In broth dilution the organism is exposed to a series of concentrations in liquid medium.)
The subject of another assay is Klebsiella aerogenes. The assay can be described thus: Antibacterial activity against Enterobacter aerogenes ATCC 13408 assessed as bacterial growth inhibition at 50 uM incubated for 24 hrs by CLSI protocol based broth microdilution assay relative to control. It is filed as functional.
Assay [2] has as its system Escherichia coli. The assay can be described thus: Antibacterial activity against outer membrane impaired Escherichia coli JD17464 harboring lpxC mutant assessed as bacterial growth inhibition at 50 uM incubated for 24 hrs by CLSI protocol based broth microdilution assay relative to control. In kind it is functional.
In a further assay the test system is Pseudomonas aeruginosa. The assay can be described thus: Antibacterial activity against Pseudomonas aeruginosa ATCC 27853 assessed as bacterial growth inhibition at 50 uM incubated for 24 hrs by CLSI protocol based broth microdilution assay relative to control. It is filed as functional.
The next assay concerns Acinetobacter baumannii. The assay can be described thus: Antibacterial activity against Acinetobacter baumannii ATCC 19606 assessed as bacterial growth inhibition at 50 uM incubated for 24 hrs by CLSI protocol based broth microdilution assay relative to control. It is filed as functional. As to conditions: ATCC 19606 = CIP 70.34 = JCM 6841.
A further assay relates to Enterococcus faecium. The assay is described as follows: Antibacterial activity against Enterococcus faecium ATCC 35667 assessed as bacterial growth inhibition at 50 uM incubated for 24 hrs by CLSI protocol based broth microdilution assay relative to control. In kind it is functional.
The target in a further assay is DNA gyrase (Escherichia coli, UniProt P0AES4+P0AES6). The assay can be described thus: Inhibition of Escherichia coli DNA gyrase using biotinylated oligonucleotide as substrate incubated for 30 mins in presence of ATP by fluorescence-based microplate reader assay. It is filed as protein-complex assay.
A further assay concerns Staphylococcus aureus. The assay can be described thus: Antibacterial activity against Staphylococcus aureus ATCC 29213 assessed as bacterial growth inhibition at 50 uM incubated for 24 hrs by CLSI protocol based broth microdilution assay relative to control. It is filed as functional.
Another assay concerns Enterococcus faecalis. The assay is described as follows: Antibacterial activity against Enterococcus faecalis ATCC 29212 assessed as bacterial growth inhibition at 50 uM incubated for 24 hrs by CLSI protocol based broth microdilution assay relative to control. In kind it is functional.
Assay [3] concerns Escherichia coli. The assay can be described thus: Antibacterial activity against efflux pump d effect ive Escherichia coli JW5503 harbouring tolC mutant assessed as bacterial growth inhibition at 50 uM incubated for 24 hrs by CLSI protocol based broth microdilution assay relative to control. It is filed as functional.
The next assay concerns Klebsiella pneumoniae. The assay can be described thus: Antibacterial activity against Klebsiella pneumoniae ATCC 700603 assessed as bacterial growth inhibition at 50 uM incubated for 24 hrs by CLSI protocol based broth microdilution assay relative to control. It is filed as functional.
Assay [4] concerns the target DNA gyrase (Escherichia coli) (UniProt P0AES6+P0AES4). The assay is described as follows: Inhibition of Escherichia coli DNA gyrase assessed as residual activity at 1 uM using biotinylated oligonucleotide as substrate incubated for 30 mins in presence of ATP by fluorescence-based microplate reader assay relative to control. In kind it is protein-complex assay.

In ChEMBL document CHEMBL4665629, “An optimised series of substituted N-phenylpyrrolamides as DNA gyrase B inhibitors” (Eur J Med Chem, 2019) one finds inhibition, IC50 and Activity data, which are given here for 14 compounds.

For orientation: inhibition means the relative decrease from the control value, in per cent. The IC50 is the midpoint of a concentration-inhibition curve.

With `N#CCNC(=O)c1ccc(NC(=O)c2cc(Br)c(Br)[nH]2)cc1`, the inhibition at 50 µM in the assay on Escherichia coli [1] was 2%; with Klebsiella aerogenes, 7%; with Escherichia coli [2], -5%; in the assay on Pseudomonas aeruginosa, 11%; with Acinetobacter baumannii, 2%; in the assay with Enterococcus faecium it was 2%. In addition, the inhibition at 50 µM in the assay with Staphylococcus aureus is -5%; in the assay with Enterococcus faecalis, 7%; in the assay with Escherichia coli [3], -9%; in the assay with Klebsiella pneumoniae, 5%. Further, at DNA gyrase, the IC50 was found to be 960 nM.

With `CC(C)(C)OC(=O)N1CCC(Oc2cc(C(=O)NCC(=O)O)ccc2NC(=O)c2cc(Br)c(Br)[nH]2)CC1`, the inhibition at 50 µM in the assay on Escherichia coli [1] was -14%; in the assay with Klebsiella aerogenes it was -14%; in the assay with Escherichia coli [2] it was -6%; with Pseudomonas aeruginosa, 6%; in the assay with Acinetobacter baumannii it was -4%; in the assay on Enterococcus faecium it was -76%. Further, the inhibition at 50 µM with Staphylococcus aureus was -18%; with Escherichia coli [3], -4%; in the assay on Klebsiella pneumoniae, 9%. On DNA gyrase, the IC50 came out at 630 nM.

For the compound `CCOC(=O)C(NC(=O)c1ccc(NC(=O)c2[nH]c(C)c(Cl)c2Cl)cc1)C(=O)OCC`, the inhibition at 50 µM is 13% with Escherichia coli [1]; 11% with Klebsiella aerogenes; 8% in the assay on Escherichia coli [2]; -6% in the assay on Pseudomonas aeruginosa; 9% in the assay on Acinetobacter baumannii; 11% with Enterococcus faecium. The inhibition at 50 µM was determined as 32% in the assay on Staphylococcus aureus, 14% with Enterococcus faecalis, 8% in the assay with Escherichia coli [3] and 18% with Klebsiella pneumoniae. Also, at DNA gyrase, the IC50 worked out at 7700 nM.

As for `COC(=O)CNC(=O)c1ccc(NC(=O)c2[nH]c(C)c(Cl)c2Cl)c(O[C@H]2CCN(C(=O)OC(C)(C)C)C2)c1`, the inhibition at 50 µM in the assay with Escherichia coli [1] was 10%; in the assay with Klebsiella aerogenes, 7%; with Escherichia coli [2] it was 30%; in the assay on Pseudomonas aeruginosa, 12%; with Acinetobacter baumannii, 9%; in the assay with Enterococcus faecium, 23%. In addition, the inhibition at 50 µM was 12% in the assay with Staphylococcus aureus, -4% in the assay on Escherichia coli [3] and 8% in the assay with Klebsiella pneumoniae. For the same compound, in [4], the Activity stood at 93%.

In the case of `CCOC(=O)C(NC(=O)c1ccc(NC(=O)c2cc(Br)c(Br)[nH]2)cc1)C(=O)OCC`, the inhibition at 50 µM is 9% in the assay on Escherichia coli [1]; 1% in the assay with Klebsiella aerogenes; 2% in the assay with Escherichia coli [2]; 5% in the assay on Pseudomonas aeruginosa; 3% with Acinetobacter baumannii; -8% with Enterococcus faecium. For the same compound, the inhibition at 50 µM with Staphylococcus aureus is 12%; in the assay on Enterococcus faecalis, 8%; in the assay on Escherichia coli [3], -8%; in the assay on Klebsiella pneumoniae, 1%. In assay [4], the Activity turned out to be 78%.

In the case of `Cc1[nH]c(C(=O)Nc2ccc(S(=O)(=O)Nc3nccs3)cc2)c(Cl)c1Cl`, the inhibition at 50 µM was 13% in the assay on Escherichia coli [1]; -2% in the assay on Klebsiella aerogenes; 17% in the assay on Escherichia coli [2]; 10% in the assay on Pseudomonas aeruginosa; 10% in the assay with Acinetobacter baumannii; 43% with Enterococcus faecium. In addition, the inhibition at 50 µM was -2% with Staphylococcus aureus, 23% in the assay with Enterococcus faecalis, 5% in the assay with Escherichia coli [3] and 1% in the assay with Klebsiella pneumoniae. Besides, the Activity in [4] was determined as 100%.

As to `COC(=O)CNC(=O)c1ccc(NC(=O)c2[nH]c(C)c(Cl)c2Cl)c(OC2CCN(C(=O)OC(C)(C)C)CC2)c1`, the inhibition at 50 µM in the assay on Escherichia coli [1] is 26%; in the assay on Klebsiella aerogenes, 5%; in the assay with Escherichia coli [2], 31%; with Pseudomonas aeruginosa it was -18%; in the assay on Acinetobacter baumannii, 15%; in the assay on Enterococcus faecium, -19%. Besides, the inhibition at 50 µM in the assay on Staphylococcus aureus is 8%; in the assay on Escherichia coli [3], 7%; in the assay on Klebsiella pneumoniae, -2%. Also, the Activity in [4] came out at 100%.

With `COC(=O)CNC(=O)c1ccc(NC(=O)c2cc(Br)c(Br)[nH]2)c(OC2CCN(C(=O)OC(C)(C)C)CC2)c1`, the inhibition at 50 µM with Escherichia coli [1] was -8%; in the assay with Klebsiella aerogenes, -9%; in the assay with Escherichia coli [2], 1%; in the assay on Pseudomonas aeruginosa, -1%; in the assay with Acinetobacter baumannii, -4%; with Enterococcus faecium it was -75%. Further, the inhibition at 50 µM with Staphylococcus aureus was -17%; in the assay with Escherichia coli [3], -4%; in the assay on Klebsiella pneumoniae, -12%. Also, the Activity in assay [4] stood at 100%.

Regarding `Cc1[nH]c(C(=O)Nc2ccc(S(N)(=O)=O)cc2)c(Cl)c1Cl`, the inhibition at 50 µM is 13% in the assay with Escherichia coli [1]; 1% with Klebsiella aerogenes; 4% in the assay on Escherichia coli [2]; -4% in the assay on Pseudomonas aeruginosa; 6% in the assay with Acinetobacter baumannii; 54% in the assay with Enterococcus faecium. For the same compound, the inhibition at 50 µM with Staphylococcus aureus stood at 12%; in the assay on Enterococcus faecalis, 6%; in the assay on Escherichia coli [3], 2%; with Klebsiella pneumoniae, 4%. Also, the Activity in assay [4] was 82%.

Consider `COC(=O)[C@@H](C)NC(=O)c1ccc(NC(=O)c2[nH]c(C)c(Cl)c2Cl)c(OC(C)C)c1`, for which the inhibition at 50 µM is 12% in the assay on Escherichia coli [1]; 12% with Klebsiella aerogenes; 27% with Escherichia coli [2]; 5% in the assay on Pseudomonas aeruginosa; 8% in the assay with Acinetobacter baumannii; -15% in the assay on Enterococcus faecium. The inhibition at 50 µM in the assay on Staphylococcus aureus is 29%; with Enterococcus faecalis, -41%; in the assay with Escherichia coli [3], 11%; in the assay on Klebsiella pneumoniae it was 16%. In addition, the Activity in assay [4] stood at 87%.

`Cc1[nH]c(C(=O)Nc2ccc(C(=O)NCC(=O)O)cc2O[C@H]2CCN(C(=O)OC(C)(C)C)C2)c(Cl)c1Cl`: the inhibition at 50 µM with Escherichia coli [1] is 5%; in the assay on Klebsiella aerogenes, 6%; in the assay with Escherichia coli [2], -2%; in the assay on Pseudomonas aeruginosa it was 14%; with Acinetobacter baumannii, 1%; in the assay on Enterococcus faecium, 9%. Moreover, the inhibition at 50 µM in the assay on Staphylococcus aureus was -1%; in the assay with Escherichia coli [3], 2%; in the assay with Klebsiella pneumoniae, 9%. Besides, the half-inhibitory concentration (IC50) at DNA gyrase was 92 nM.

Turning to `COC(=O)CNS(=O)(=O)c1ccc(NC(=O)c2[nH]c(C)c(Cl)c2Cl)cc1`, the inhibition at 50 µM in the assay on Escherichia coli [1] is 18%; in the assay on Klebsiella aerogenes it was -4%; in the assay on Escherichia coli [2], 4%; in the assay on Pseudomonas aeruginosa, 5%; in the assay with Acinetobacter baumannii, 9%; with Enterococcus faecium, 34%. Besides, the inhibition at 50 µM in the assay on Staphylococcus aureus is 12%; in the assay on Enterococcus faecalis, 8%; with Escherichia coli [3], -1%; in the assay on Klebsiella pneumoniae, 1%. The Activity in [4] was 87%.

Consider `COC(=O)[C@@H](C)NC(=O)c1ccc(NC(=O)c2[nH]c(C)c(Cl)c2Cl)c(OC2CCN(C(=O)OC(C)(C)C)CC2)c1`, for which the inhibition at 50 µM was found to be 18% with Escherichia coli [1]; 22% in the assay with Klebsiella aerogenes; 44% in the assay on Escherichia coli [2]; 33% in the assay with Pseudomonas aeruginosa; 36% in the assay with Acinetobacter baumannii; 52% in the assay on Enterococcus faecium. In addition, the inhibition at 50 µM was found to be 30% in the assay on Staphylococcus aureus, 40% with Escherichia coli [3] and 2% in the assay on Klebsiella pneumoniae. The Activity in assay [4] turned out to be 94%.

For `CCOC(=O)c1cc2cc(NC(=O)c3[nH]c(C)c(Cl)c3Cl)ccc2[nH]1`, the Activity in assay [4] was 100%.
